Measurements published in article PMC8999917, “Structure–Activity Relationship of Synthetic Ginkgolic Acid Analogs for Treating Type 2 Diabetes by PTPN9 Inhibition” (International Journal of Molecular Sciences, 2022).

How the values were obtained:
Akt phosphorylation [1] = assay: Western blot of Akt phosphorylation in mature 3T3-L1 adipocytes; assay type: cell-based, mouse; settings: compound only group and insulin co-treatment group
Method: To further elucidate the pathway involved in 1e-mediated glucose uptake promotion, AMPK and Akt phosphorylation in mature 3T3-L1 adipocytes was evaluated via Western blotting following treatment with 5 or 10 µM 1e for 1 h.
The expression levels of glucose uptake-related proteins were determined via Western blotting, as previously described. In brief, differentiated 3T3-L1 cells were plated in six-well plates at a 1.5 × 10^4 cells/well density in a final volume of 2 mL. Then, the cells were incubated in the presence of DMSO or different concentrations of the compounds and harvested using a RIPA buffer (Sigma-Aldrich, Saint Louis, MS, USA) and a protease inhibitor cocktail (Roche Korea, Seoul, Korea) after 1 h of incubation. Equivalent amounts of proteins (20 µg) from each lysate were separated by 10% SDS-PAGE and transferred onto PVDF membranes (Merk KgaA, Darmstadt, Germany), where they were maintained for 120 min at 200 mA. The membranes were blocked with 5% skim milk for 1 h at room temperature in 0.1% TBST and then probed with primary antibodies at different concentrations in 0.1% BSA overnight at 4 °C according to the manufacturer’s instructions. Secondary antibodies were added to the membranes at a concentration of 1:2000 for 1 h at room temperature, and immunoreactive bands were detected via ECL (GE Healthcare Korea Co., Ltd., Incheon, Korea). […]

Akt phosphorylation [2] = assay: Western blot of Akt phosphorylation in C2C12 myotubes; assay type: cell-based, mouse
From the text: To further investigate the mechanism of action of 1e, we evaluated its effects on AMPK and AKT phosphorylation in C2C12 myotubes. […] In line with the results obtained in 3T3-L1 cells, in the absence of insulin, 1e had no effects on basal p-Akt expression levels (Figure 6A). Since insulin plays an important role in regulating glucose metabolism through the redistribution of GLUT4 from intracellular vesicles to the cell surface, it is important to describe the interaction between 1e and insulin in the Akt pathway. […] Next, we evaluated the protective effects of 1e against PA-induced insulin resistance in C2C12 myotubes. To generate an insulin resistance model, C2C12 myotubes were treated with 250 µM PA in a serum-free medium for 16 h. Akt phosphorylation levels in PA-treated C2C12 cells decreased by 50% compared to levels in normal C2C12 cells (Figure 6C). Furthermore, in the presence of insulin and GA, Akt phosphorylation levels decreased only by 30% compared to levels in normal cells. […] The expression levels of glucose uptake-related proteins were determined via Western blotting, as previously described. […] Secondary antibodies were added to the membranes at a concentration of 1:2000 for 1 h at room temperature, and immunoreactive bands were detected via ECL (GE Healthcare Korea Co., Ltd., Incheon, Korea). […]

CCCCCCCCCCCCCOc1cccc(O)c1C(=O)O [Compound 1e]
Akt phosphorylation levels (Akt phosphorylation [1]): no significant change
Akt phosphorylation on co-treatment with insulin (Akt phosphorylation [2]; 100 nM insulin): synergistic Akt phosphorylation-improving effects with insulin
basal p-Akt expression levels (Akt phosphorylation [2]; absence of insulin): no effects
